From patent publication US12077503B2, “Substituted cyclic amides and their use as herbicides” (FMC CORPORATION, priority 2015, dated 2024)

Assays:
Format in all cases: in vivo
Kochia (Kochia scoparia) [1] = assay: Test A preemergence; details: Bassia scoparia, pre-emergence, 240 h, read-out: Plant response rating, Kochia
In short: (§1)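 Treatment is preemergence as a directed soil spray after planting, or postemergence at the one- to two-leaf stage, with test chemical in a non-phytotoxic solvent mixture plus surfactant. Plants stay in the greenhouse about 10 d before visual injury scoring on a 0 to 100 scale versus untreated controls.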

[2] = system: barnyardgrass (Echinochloa crus-galli); assay: Test A preemergence; details: Echinochloa crus-galli, pre-emergence, 240 h, read-out: Plant response rating, Barnyardgrass
In short: as §1

[3] = system: giant foxtail (Setaria faberii); assay: Test A preemergence; details: Setaria faberi, pre-emergence, 240 h, read-out: Plant response rating, Foxtail, Giant
In short: as §1

[4] = system: pigweed (Amaranthus retroflexus); assay: Test A preemergence; details: Amaranthus retroflexus, pre-emergence, 240 h, read-out: Plant response rating, Pigweed
[5] = system: ragweed (common ragweed, Ambrosia elatior); assay: Test A preemergence; details: Ambrosia artemisiifolia, pre-emergence, 240 h, read-out: Plant response rating, Ragweed
In short: as §1

[6] = system: ryegrass, Italian (Italian ryegrass, Lolium multiflorum); assay: Test A preemergence; details: Lolium multiflorum, pre-emergence, 240 h, read-out: Plant response rating, Ryegrass, Italian
In short: as §1

[7] = system: Galium (catchweed bedstraw, Galium aparine); assay: Test A postemergence; details: Galium, post-emergence, 240 h, read-out: Plant response rating, Galium
In short: as §1

Kochia (Kochia scoparia) [8] = assay: Test A postemergence; details: Bassia scoparia, post-emergence, 240 h, read-out: Plant response rating, Kochia
In short: as §1

[9] = system: barnyardgrass (Echinochloa crus-galli); assay: Test A postemergence; details: Echinochloa crus-galli, post-emergence, 240 h, read-out: Plant response rating, Barnyardgrass
In short: as §1

corn (Zea mays) = assay: Test A postemergence; details: Zea mays, post-emergence, 240 h
In short: as §1

[10] = system: giant foxtail (Setaria faberii); assay: Test A postemergence; details: Setaria faberi, post-emergence, 240 h, read-out: Plant response rating, Foxtail, Giant
In short: as §1

[11] = system: pigweed (Amaranthus retroflexus); assay: Test A postemergence; details: Amaranthus retroflexus, post-emergence, 240 h, read-out: Plant response rating, Pigweed
In short: as §1

[12] = system: ragweed (common ragweed, Ambrosia elatior); assay: Test A postemergence; details: Ambrosia artemisiifolia, post-emergence, 240 h, read-out: Plant response rating, Ragweed
In short: as §1

[13] = system: ryegrass, Italian (Italian ryegrass, Lolium multiflorum); assay: Test A postemergence; details: Lolium multiflorum, post-emergence, 240 h, read-out: Plant response rating, Ryegrass, Italian
In short: as §1

[14] = system: wheat (Triticum aestivum); assay: Test A postemergence; details: Triticum aestivum, post-emergence, 240 h, Postemergence, 31 g ai/ha; visual injury after approx. 10 d; 0 to 100 scale, 0 no effect, 100 complete control; read-out: Plant response rating, Wheat
In short: as §1

[15] = 125 g ai/ha, preemergence, visual rating after approx. 10 d, 0 to 100 scale where 0 is no effect and 100 is complete control
[16] = Preemergence, 31 g ai/ha, 0 to 100 scale (0 no effect, 100 complete control)
[17] = 125 g ai/ha, postemergence, visual injury after approximately 10 d, 0 to 100 scale (0 no effect, 100 complete control)
[18] = Postemergence, 31 g ai/ha, visual injury after approx. 10 d, 0 to 100 scale, 0 no effect, 100 complete control

## CN1CC[C@@H](c2cccc(C(F)(F)F)c2)[C@H](C(=O)Nc2ccccc2F)C1=O [Compound 794]
Kochia (Kochia scoparia) [1]; [15]
  pest or weed control at 125 g/ha: 0%
Kochia (Kochia scoparia) [1]; [16]
  pest or weed control at 31 g/ha: 0%
[2]; [15]
  pest or weed control at 125 g/ha: 90%
[2]; [16]
  pest or weed control at 31 g/ha: 70%
[3]; [15]
  pest or weed control at 125 g/ha: 90%
[3]; [16]
  pest or weed control at 31 g/ha: 30%
[4]; [15]
  pest or weed control at 125 g/ha: 0%
[4]; [16]
  pest or weed control at 31 g/ha: 0%
[5]; [15]
  pest or weed control at 125 g/ha: 0%
[5]; [16]
  pest or weed control at 31 g/ha: 0%
[6]; [15]
  pest or weed control at 125 g/ha: 0%
[6]; [16]
  pest or weed control at 31 g/ha: 0%
[7]; [17]
  pest or weed control at 125 g/ha: 0%
[7]; [18]
  pest or weed control at 31 g/ha: 0%
Kochia (Kochia scoparia) [8]; [17]
  pest or weed control at 125 g/ha: 0%
Kochia (Kochia scoparia) [8]; [18]
  pest or weed control at 31 g/ha: 0%
[9]; [17]
  pest or weed control at 125 g/ha: 30%
[9]; [18]
  pest or weed control at 31 g/ha: 0%
Corn (Zea mays); [17]
  Corn plant response rating (crop injury, 0 = no effect, 100 = complete kill) at 125 g/ha: 0%
Corn (Zea mays); [18]
  Corn plant response rating (crop injury, 0 = no effect, 100 = complete kill) at 31 g/ha: 0%
[10]; [17]
  pest or weed control at 125 g/ha: 30%
[10]; [18]
  pest or weed control at 31 g/ha: 0%
[11]; [17]
  pest or weed control at 125 g/ha: 0%
[11]; [18]
  pest or weed control at 31 g/ha: 0%
[12]; [17]
  pest or weed control at 125 g/ha: 0%
[12]; [18]
  pest or weed control at 31 g/ha: 0%
[13]; [17]
  pest or weed control at 125 g/ha: 0%
[13]; [18]
  pest or weed control at 31 g/ha: 0%
[14]
  plant injury at 31 g/ha: 0%
